Each block holds one compound with its values, some of them ahead of it.
Tested on: 883617-216-R-J1-PDC tumor spheroids, viability
Test: Anticancer human tumor 883617-216-R-J1-PDC patient-derived bladder carcinoma cell line growth inhibition [PI3K]
Conditions: spheroids with HUVEC and MSC; for IC50: curve of first compound; for viability, T/C: stronger effect = lower value
Summary of the method: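 Stroma-containing spheroids: tumor line, pooled-donor HUVEC, hMSC. Treatments: targeted agents with PI3K inhibitors. Dosing: clinically relevant, half-log spacing, 10 microM ceiling without known Cmax. Read-out: cell viability.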

[1] = second compound 0.0316 µM, first compound 0.0316 µM
[2] = second compound 0.0316 µM, first compound 0.1 µM
[3] = second compound 0.0316 µM, first compound 0.316 µM
[4] = second compound 0.0316 µM, first compound 1 µM
[5] = second compound 0.0316 µM, first compound 3.16 µM
[6] = second compound 0.0316 µM, first compound 10 µM
[7] = second compound 0.1 µM, first compound 0.0316 µM
[8] = second compound 0.1 µM, first compound 0.1 µM
[9] = second compound 0.1 µM, first compound 0.316 µM
[10] = second compound 0.1 µM, first compound 1 µM
[11] = second compound 0.1 µM, first compound 3.16 µM
[12] = second compound 0.1 µM, first compound 10 µM
[13] = second compound 0.316 µM, first compound 0.0316 µM
[14] = second compound 0.316 µM, first compound 0.1 µM
[15] = second compound 0.316 µM, first compound 0.316 µM
[16] = second compound 0.316 µM, first compound 1 µM
[17] = second compound 0.316 µM, first compound 3.16 µM
[18] = second compound 0.316 µM, first compound 10 µM
[19] = second compound 1 µM, first compound 0.0316 µM
[20] = second compound 1 µM, first compound 0.1 µM
[21] = second compound 1 µM, first compound 0.316 µM
[22] = second compound 1 µM, first compound 1 µM
[23] = second compound 1 µM, first compound 3.16 µM
[24] = second compound 1 µM, first compound 10 µM
[25] = second compound 3.16 µM, first compound 0.0316 µM
[26] = second compound 3.16 µM, first compound 0.1 µM
[27] = second compound 3.16 µM, first compound 0.316 µM
[28] = second compound 3.16 µM, first compound 1 µM
[29] = second compound 3.16 µM, first compound 3.16 µM
[30] = second compound 3.16 µM, first compound 10 µM
[31] = second compound 10 µM, first compound 0.0316 µM
[32] = second compound 10 µM, first compound 0.1 µM
[33] = second compound 10 µM, first compound 0.316 µM
[34] = second compound 10 µM, first compound 1 µM
[35] = second compound 10 µM, first compound 3.16 µM
[36] = second compound 10 µM, first compound 10 µM
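Also: spheroids exposed to agents for 7 days before the viability read.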

IC50 (second compound 0.0316 µM): 4360 nM
IC50 (second compound 0.1 µM): 4380 nM
IC50 (second compound 0.316 µM): 858 nM
IC50 (second compound 1 µM): < 31.6 nM
IC50 (second compound 3.16 µM): < 31.6 nM
IC50 (second compound 10 µM): < 31.6 nM
Structure (SMILES): CCCS(=O)(=O)Nc1ccc(F)c(C(=O)c2c[nH]c3ncc(-c4ccc(Cl)cc4)cc23)c1F + Cc1nc(NC(=O)N2CCCC2C(N)=O)sc1-c1ccnc(C(C)(C)C(F)(F)F)c1
viability, T/C [1]: 75.6%
viability, T/C [2]: 83.1%
viability, T/C [3]: 88.1%
viability, T/C [4]: 92.9%
viability, T/C [5]: 66.4%
viability, T/C [6]: 7.45%
viability, T/C [7]: 84.8%
viability, T/C [8]: 78.3%
viability, T/C [9]: 65%
viability, T/C [10]: 74%
viability, T/C [11]: 66%
viability, T/C [12]: 9.98%
viability, T/C [13]: 53.6%
viability, T/C [14]: 55.1%
viability, T/C [15]: 51.4%
viability, T/C [16]: 49.2%
viability, T/C [17]: 39.8%
viability, T/C [18]: 10.4%
viability, T/C [19]: 33.3%
viability, T/C [20]: 26.5%
viability, T/C [21]: 34.3%
viability, T/C [22]: 39.8%
viability, T/C [23]: 35.9%
viability, T/C [24]: 7.76%
viability, T/C [25]: 16.6%
viability, T/C [26]: 16.3%
viability, T/C [27]: 17.8%
viability, T/C [28]: 19.3%
viability, T/C [29]: 16.6%
viability, T/C [30]: 7.14%
viability, T/C [31]: 7.33%
viability, T/C [32]: 7.82%
viability, T/C [33]: 7.92%
viability, T/C [34]: 10%
viability, T/C [35]: 9.86%
viability, T/C [36]: 4.55%

IC50 (second compound 0.0316 µM): > 10000 nM
IC50 (second compound 0.1 µM): > 10000 nM
IC50 (second compound 0.316 µM): < 31.6 nM
IC50 (second compound 1 µM): 73.9 nM
IC50 (second compound 3.16 µM): < 31.6 nM
IC50 (second compound 10 µM): < 31.6 nM
Structure (SMILES): C=CC(=O)N1CCN(c2nc(=O)n(-c3c(C)ccnc3C(C)C)c3nc(-c4c(O)cccc4F)c(F)cc23)C(C)C1 (centres undefined) + CC(Nc1ncnc2nc[nH]c12)c1cc2cccc(Cl)c2c(=O)n1-c1ccccc1
viability, T/C [1]: 59.4%
viability, T/C [2]: 41.1%
viability, T/C [3]: 49.5%
viability, T/C [4]: 55.3%
viability, T/C [5]: 59.9%
viability, T/C [6]: 64.2%
viability, T/C [7]: 60.9%
viability, T/C [8]: 46.9%
viability, T/C [9]: 48.4%
viability, T/C [10]: 57.9%
viability, T/C [11]: 63.4%
viability, T/C [12]: 62%
viability, T/C [13]: 55.9%
viability, T/C [14]: 43.4%
viability, T/C [15]: 40.8%
viability, T/C [16]: 59.1%
viability, T/C [17]: 48.7%
viability, T/C [18]: 54.8%
viability, T/C [19]: 63.3%
viability, T/C [20]: 45.2%
viability, T/C [21]: 43%
viability, T/C [22]: 45.7%
viability, T/C [23]: 37.1%
viability, T/C [24]: 45.6%
viability, T/C [25]: 43.2%
viability, T/C [26]: 36.2%
viability, T/C [27]: 27.2%
viability, T/C [28]: 37.5%
viability, T/C [29]: 37.6%
viability, T/C [30]: 45.4%
viability, T/C [31]: 26.1%
viability, T/C [32]: 20.1%
viability, T/C [33]: 19.6%
viability, T/C [34]: 21.9%
viability, T/C [35]: 28.8%
viability, T/C [36]: 31.7%

Reference: PubChem BioAssay AID1963973 (Molecular Pharmacology Branch, DTP, NCI, 2024)
